# Measurements taken from US20060069132A1, “Azolecarboxamide herbicides” (priority 2004, published 2006).
# Like-named read-outs stand apart in the source and are kept apart here.
# How the values were obtained:
# [1] = tested on: giant foxtail; assay: Test B pre-/postemergence herbicide test; format: in vivo, Setaria faberi; conditions: Setaria faberi, 336 h; for pest or weed control at 500 g/ha: 500 g ai/ha; for pest or weed control at 125 g/ha: 125 g ai/ha
# Summary of the method: (§1)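 Flooded paddy rice and barnyardgrass were treated at the 2-leaf stage; upland plantings received compound either on sown seed or on 1- to 4-leaf seedlings. All were kept 13–15 days in a greenhouse and scored visually, 0–100, relative to untreated plants.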
# [2] = tested on: blackgrass; assay: Test B postemergence herbicide test; format: in vivo, Alopecurus myosuroides; conditions: scale 0 (no effect) to 100 (complete control)
# Summary of the method: (§2)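 Plants grow to 1- to 4-leaf stage (2–18 cm) for postemergence spraying, or to 2-leaf stage for the paddy test. Formulated compound is applied. Greenhouse holding lasts 13–15 days. Response is scored visually relative to controls, 0 no effect to 100 complete control; a dash means no result.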
# [3] = tested on: wild oat; assay: Test B postemergence herbicide test; format: in vivo, Avena fatua; conditions: scale 0 (no effect) to 100 (complete control)
# Summary of the method: (§3)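 Treated at 2-leaf (paddy) or 1–4-leaf, 2–18 cm (postemergence); greenhouse 13–15 d; visual score vs control, 0 none to 100 complete control; dash = not tested.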
# [4] = tested on: Surinam grass; assay: Test B pre-/postemergence herbicide test; format: in vivo, Urochloa decumbens; conditions: Urochloa decumbens; for pest or weed control at 125 g/ha: 125 g ai/ha
# Summary of the method: as §1
# [5] = tested on: large crabgrass; assay: Test B pre-/postemergence herbicide test; format: in vivo, Digitaria sanguinalis; conditions: Digitaria sanguinalis; for pest or weed control at 500 g/ha: 500 g ai/ha; for pest or weed control at 125 g/ha: 125 g ai/ha
# Summary of the method: as §1
# [6] = tested on: rice; assay: Test B flooded paddy test; format: in vivo, Oryza sativa; conditions: Oryza sativa, 336 h, 1000 g ai/ha, visual rating, scale 0 to 100 (0 no effect, 100 complete control), 13 to 15 days, read-out: Rice plant response rating
# Summary of the method: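 After treating 2-leaf paddy plants or 2–18 cm postemergence plants (1 to 4 leaves) with formulated chemical, researchers kept them in a greenhouse for 13–15 days. Effects were judged visually versus controls: 0 indicates none, 100 total control.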
# [7] = tested on: pigweed; assay: Test B pre-/postemergence herbicide test; format: in vivo, Amaranthus retroflexus; conditions: Amaranthus retroflexus, 336 h; for pest or weed control at 125 g/ha: 125 g ai/ha
# Summary of the method: as §1
# [8] = tested on: wheat; assay: Test B postemergence herbicide test; format: in vivo, Triticum aestivum; conditions: scale 0 (no effect) to 100 (complete control)
# Summary of the method: as §3
# [9] = tested on: barnyardgrass; assay: Test B flooded paddy test; format: in vivo, Echinochloa crus-galli; conditions: Echinochloa crus-galli, 336 h, 1000 g ai/ha, visual rating, scale 0 to 100 (0 no effect, 100 complete control), 13 to 15 days, read-out: Barnyardgrass plant response rating
# Summary of the method: as §2
# [10] = tested on: barnyardgrass; assay: Test B pre-/postemergence herbicide test; format: in vivo, Echinochloa crus-galli; conditions: Echinochloa crus-galli; for pest or weed control at 500 g/ha: 500 g ai/ha; for pest or weed control at 125 g/ha: 125 g ai/ha
# Summary of the method: (§4)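 Species tested were Echinochloa crus-galli, Ipomoea coccinea, Xanthium strumarium and Oryza sativa, treated both before emergence and at the 1- to 4-leaf stage; rice and barnyardgrass were also tested under flooding at 2 leaves. Greenhouse incubation lasted 13–15 days before visual 0–100 scoring.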
# [11] = tested on: lambsquarters; assay: Test B pre-/postemergence herbicide test; format: in vivo, Chenopodium album; conditions: Chenopodium album, 336 h; for pest or weed control at 125 g/ha: 125 g ai/ha
# Summary of the method: as §1
# [12] = tested on: morningglory; assay: Test B pre-/postemergence herbicide test; format: in vivo, Ipomoea coccinea; conditions: Ipomoea, 336 h; for pest or weed control at 125 g/ha: 125 g ai/ha
# Summary of the method: as §4
# [13] = tested on: cocklebur; assay: Test B pre-/postemergence herbicide test; format: in vivo, Xanthium strumarium; conditions: Xanthium strumarium; for pest or weed control at 500 g/ha: 500 g ai/ha; for pest or weed control at 125 g/ha: 125 g ai/ha
# Summary of the method: as §4
# [14] = tested on: velvetleaf; assay: Test B pre-/postemergence herbicide test; format: in vivo, Abutilon theophrasti; conditions: Abutilon theophrasti, 336 h; for pest or weed control at 125 g/ha: 125 g ai/ha
# Summary of the method: as §1
# [15] = tested on: small flower umbrella sedge; assay: Test B flooded paddy test; format: in vivo, Cyperus difformis; conditions: Cyperus difformis, 336 h, 1000 g ai/ha, visual rating, scale 0 to 100 (0 no effect, 100 complete control), 13 to 15 days, read-out: Sedge, Umbrella plant response rating
# Summary of the method: as §2
# [16] = Postemergence, 500 g ai/ha, visual rating after 13 to 15 days
smiles,measurement,setting,value
"CCn1nc(C(C)(C)C)cc1C(=O)Nc1cccc(C(=O)OCCF)c1 [Compound 82, 2-fluoroethyl 3-[[[3-(1,1-dimethylethyl)-1-ethyl-1H-pyrazol-5-yl]-carbonyl]amino]benzoate]",pest or weed control at 500 g/ha,"[1]; post-emergence, Postemergence, visual rating after 13 to 15 days, scale 0 (no effect) to 100 (complete control), read-out: Plant response rating, Foxtail, Giant",10%
same,pest or weed control at 125 g/ha,"[1]; post-emergence, postemergence, visual rating, scale 0 (no effect) to 100 (complete control), read-out: Foxtail, Giant plant response rating",10%
same,pest or weed control at 500 g/ha,"[1]; pre-emergence, Preemergence, scale 0 to 100, read-out: Foxtail, Giant plant response rating",0%
same,pest or weed control at 125 g/ha,"[1]; pre-emergence, preemergence, 0 to 100 scale, 0 is no effect, 100 is complete control, read-out: Plant response rating, Foxtail, Giant",0%
same,pest or weed control at 125 g/ha,"[2]; Alopecurus myosuroides, post-emergence, 336 h, postemergence, 125 g ai/ha, visual rating, read-out: Blackgrass plant response rating",0%
same,"Plant response rating, Blackgrass",[2]; [16],10
same,pest or weed control at 125 g/ha,"[3]; Avena fatua, post-emergence, 336 h, postemergence, 125 g ai/ha, visual rating, read-out: Oat, Wild plant response rating",10%
same,"Plant response rating, Oat, Wild",[3]; [16],30
same,pest or weed control at 500 g/ha,"[4]; post-emergence, Postemergence, 500 g ai/ha, visual rating after 13 to 15 days, scale 0 (no effect) to 100 (complete control), read-out: Plant response rating, Surinam Grass",60%
same,pest or weed control at 125 g/ha,"[4]; post-emergence, postemergence, visual rating, scale 0 (no effect) to 100 (complete control), read-out: Surinam Grass plant response rating",30%
same,pest or weed control at 125 g/ha,"[4]; pre-emergence, preemergence, 0 to 100 scale, 0 is no effect, 100 is complete control, read-out: Plant response rating, Surinam Grass",0%
same,pest or weed control at 500 g/ha,"[5]; post-emergence, Postemergence, visual rating after 13 to 15 days, scale 0 (no effect) to 100 (complete control), read-out: Plant response rating, Crabgrass, Large",20%
same,pest or weed control at 125 g/ha,"[5]; post-emergence, postemergence, visual rating, scale 0 (no effect) to 100 (complete control), read-out: Crabgrass, Large plant response rating",10%
same,pest or weed control at 500 g/ha,"[5]; pre-emergence, Preemergence, scale 0 to 100, read-out: Crabgrass, Large plant response rating",0%
same,pest or weed control at 125 g/ha,"[5]; pre-emergence, preemergence, 0 to 100 scale, 0 is no effect, 100 is complete control, read-out: Plant response rating, Crabgrass, Large",0%
same,plant injury at 1000 g/ha,[6],40%
same,pest or weed control at 500 g/ha,"[7]; post-emergence, Postemergence, 500 g ai/ha, visual rating after 13 to 15 days, scale 0 (no effect) to 100 (complete control), read-out: Plant response rating, Pigweed",100%
same,pest or weed control at 125 g/ha,"[7]; post-emergence, postemergence, visual rating, scale 0 (no effect) to 100 (complete control), read-out: Pigweed plant response rating",80%
same,pest or weed control at 125 g/ha,"[7]; pre-emergence, preemergence, 0 to 100 scale, 0 is no effect, 100 is complete control, read-out: Plant response rating, Pigweed",0%
same,"Plant response rating, Wheat",[8]; [16],20
same,plant injury at 125 g/ha,"[8]; Triticum aestivum, post-emergence, 336 h, postemergence, 125 g ai/ha, visual rating, read-out: Wheat plant response rating",20%
same,pest or weed control at 1000 g/ha,[9],30%
same,pest or weed control at 500 g/ha,"[10]; post-emergence, Postemergence, visual rating after 13 to 15 days, scale 0 (no effect) to 100 (complete control), read-out: Plant response rating, Barnyardgrass",20%
same,pest or weed control at 125 g/ha,"[10]; post-emergence, postemergence, visual rating, scale 0 (no effect) to 100 (complete control), read-out: Barnyardgrass plant response rating",10%
same,pest or weed control at 500 g/ha,"[10]; pre-emergence, Preemergence, scale 0 to 100, read-out: Barnyardgrass plant response rating",0%
same,pest or weed control at 125 g/ha,"[10]; pre-emergence, preemergence, 0 to 100 scale, 0 is no effect, 100 is complete control, read-out: Plant response rating, Barnyardgrass",0%
same,pest or weed control at 500 g/ha,"[11]; post-emergence, Postemergence, 500 g ai/ha, visual rating after 13 to 15 days, scale 0 (no effect) to 100 (complete control), read-out: Plant response rating, Lambsquarters",50%
same,pest or weed control at 125 g/ha,"[11]; post-emergence, postemergence, visual rating, scale 0 (no effect) to 100 (complete control), read-out: Lambsquarters plant response rating",20%
same,pest or weed control at 125 g/ha,"[11]; pre-emergence, preemergence, 0 to 100 scale, 0 is no effect, 100 is complete control, read-out: Plant response rating, Lambsquarters",0%
same,pest or weed control at 500 g/ha,"[12]; post-emergence, Postemergence, 500 g ai/ha, visual rating after 13 to 15 days, scale 0 (no effect) to 100 (complete control), read-out: Plant response rating, Morningglory",70%
same,pest or weed control at 125 g/ha,"[12]; post-emergence, postemergence, visual rating, scale 0 (no effect) to 100 (complete control), read-out: Morningglory plant response rating",10%
same,pest or weed control at 125 g/ha,"[12]; pre-emergence, preemergence, 0 to 100 scale, 0 is no effect, 100 is complete control, read-out: Plant response rating, Morningglory",0%
same,pest or weed control at 500 g/ha,"[13]; post-emergence, Postemergence, visual rating after 13 to 15 days, scale 0 (no effect) to 100 (complete control), read-out: Plant response rating, Cocklebur",100%
same,pest or weed control at 125 g/ha,"[13]; post-emergence, postemergence, visual rating, scale 0 (no effect) to 100 (complete control), read-out: Cocklebur plant response rating",80%
same,pest or weed control at 500 g/ha,"[13]; pre-emergence, Preemergence, scale 0 to 100, read-out: Cocklebur plant response rating",0%
same,pest or weed control at 125 g/ha,"[13]; pre-emergence, preemergence, 0 to 100 scale, 0 is no effect, 100 is complete control, read-out: Plant response rating, Cocklebur",0%
same,pest or weed control at 500 g/ha,"[14]; post-emergence, Postemergence, 500 g ai/ha, visual rating after 13 to 15 days, scale 0 (no effect) to 100 (complete control), read-out: Plant response rating, Velvetleaf",90%
same,pest or weed control at 125 g/ha,"[14]; post-emergence, postemergence, visual rating, scale 0 (no effect) to 100 (complete control), read-out: Velvetleaf plant response rating",80%
same,pest or weed control at 125 g/ha,"[14]; pre-emergence, preemergence, 0 to 100 scale, 0 is no effect, 100 is complete control, read-out: Plant response rating, Velvetleaf",0%
same,pest or weed control at 1000 g/ha,[15],40%
